# Test results as given in patent US10278957B2, “Opioid agonist peptides and uses thereof” (Protagonist Therapeutics, Inc., priority 2017, dated 2019).
# pEC50: −log10 of the molar value. Numbered stars: 1 amine (or outer) side, 2 acyl side, 3 side chain; on linkers, the order of the positions; unused ones are H or OH. Bridge positions count the residues as written; N and C are the ends. Square brackets hold non-standard residues; d marks the D form. Peptide text beside a SMILES is read from it. I, II: the chains in the order shown. Diglycolyl = O=C(COCC(=O)[*:2])[*:1]; Dmt = Cc1cc(O)cc(C)c1C[C@H](N)C(=O)O; β3hF = N[C@H](CC(=O)O)Cc1ccccc1; Sar = CNCC(=O)O
# Columns and labels:
# [1] = SIF assay (stability in simulated intestinal fluid); type: in vitro ADME; conditions: for half-life at 20 μM: simulated intestinal fluid (SIF) with pancreatin, simulated intestinal fluid, pH 6.8, pancreatin, 37° C.
# Protocol: SIF was prepared by adding 6.8 g of monobasic potassium phosphate and 10.0 g of pancreatin to 1.0 L of water. After dissolution, the pH was adjusted to 6.8 using NaOH. DMSO stocks (2 mM) were prepared for each of the opioid agonist peptides. Aliquots of the DMSO solutions were dosed into […], each containing 0.5 mL of SIF, which was pre-warmed to 37° C. The final opioid agonist peptide concentration was 20 μM. The vials were kept in a benchtop Thermomixer® for the duration of the experiment. At each timepoint (0, 5, 10, 20, 40, 60, or 360 minutes or 24 hours), 1.0 mL of acetonitrile containing 1% formic acid was added to one vial to terminate the reaction. Samples were stored at 4° C. until the end of the experiment. After the final timepoint was sampled, the tubes were mixed and then centrifuged at 3,000 rpm for 10 minutes. Aliquots of the supernatant were removed, diluted 1:1 into distilled water containing an internal standard, and analyzed by LCMS/MS. The percent of the opioid agonist peptide remaining at each timepoint was calculated based on the peak area response ratio of opioid agonist peptide to the internal standard. Time 0 was set to 100%, and all later timepoints were calculated relative to time 0. Half-lives were calculated by fitting to a first-order exponential decay equation using Graph pad.
# δ-opioid receptor (DOR) = target: T1, δ-opioid receptor (DOR) (Homo sapiens, UniProt P41143); assay: DOR agonist cAMP assay (HitHunter cAMP, forskolin-stimulated); type: cell-based
# T1 construct: host or cells: cAMP Hunter CHO-K1 OPRD1 Gαi cell line
# Procedure, shortened: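 CHO-K1 Gαi cells expressing OPRM1 or OPRD1 were exposed 30 min at 37° C to 11-point threefold agonist dilutions, in duplicate, with 20 uM forskolin final. cAMP quantified by EFC chemiluminescent competitive immunoassay against cAMP standards. EC50 by four-parameter Hill nonlinear regression.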
# [2] = SGF assay (stability in simulated gastric fluid); type: in vitro ADME; conditions: pig, simulated gastric fluid (SGF) with porcine pepsin, pH 2, pepsin, 37° C.
# Protocol: SGF was prepared by adding 20 mg NaCl, 32 mg porcine pepsin (MP Biochemicals, catalog 02102599), and 70 μl HCl to 10 ml water (final pH=2). Aliquots of SGF (0.5 ml each) were pre-warmed at 37° C. To start the reaction, 1 μl of opioid agonist peptide stock solution (10 mM in DMSO) was added to 0.5 ml SGF and thoroughly mixed such that the final peptide concentration was 20 μM. The reactions were incubated at 37° C. with gentle shaking.
# At each timepoint (0, 15, 30, 60 min) 50 µl aliquots were removed and added to 200 ul of acetonitrile containing 0.1% formic acid to quench the reaction. Samples were stored at 4° C. until the end of the experiment and centrifuged at 10,000 rpm for 5 minutes. Aliquots of the supernatant were removed, diluted 1:1 into distilled water containing internal standard, and analyzed by LCMS/MS. The percent of the opioid agonist peptide remaining at each timepoint was calculated based on the peak area response ratio of the opioid agonist peptide to the internal standard. Time 0 was set to 100%, and all later timepoints were calculated relative to time 0. Half-lives were calculated by fitting to a first-order exponential decay equation using GraphPad.
# μ-opioid receptor (MOR) = target: T2, μ-opioid receptor (MOR) (Homo sapiens, UniProt P35372); assay: MOR agonist cAMP assay (HitHunter cAMP, forskolin-stimulated); type: cell-based
# T2 construct: host or cells: cAMP Hunter CHO-K1 OPRM1 Gαi cell line
# Protocol: The HitHunter® cAMP chemiluminescent assay kit (DiscoveRx, Cat# 90-0075 SM25) was used to detect cAMP production in cAMP Hunter™ Gαi cell lines over expressing either Human-ORPM1 (Discoverx, Catalog# 95-0107C2) or Human-ORPD1 (DiscoveRx, Catalog# 95-0108C2). Opioid agonist binding to the Gαi receptors inhibits the intracellular cAMP accumulation induced by forskolin, which activates adenylate cyclase and increases intracellular levels of cAMP.
# Cells were cultured in media consisting of Ham's F-12 Nutrient Mix (Life Technologies, Catalog#31765035), 10% FBS (Life Technologies, Catalog# 16140-071), 4 mM GlutaMAX (Life Technologies, Catalog#35050-061), […] (Life Technologies), 100 ug/ml of Penn-Strep (Life Technologies) and 0.5 mg/ml Geneticin (Life Technologies, Catalog# 10131-027). The cultures were maintained at 37° C. under 5% CO2.
# In preparation for cAMP assay, the cells were seeded at a density of 300,000 cells/ml in 100 ul of media/well in 96-well microplate. Wells that were designated for cAMP standards were left empty.
# Opioid agonist serial dilutions were prepared in separate dilution plate (11-point series of 3× (3-fold) dilution) in Cell Assay buffer, including 3× forskolin for Gαi target. For Hunter CHO-K1 OPRM1 or CHO-K1 OPRD1 Gαi Cell Lines, the final forskolin concentration was 20 uM.
# 15 ul of each 3× opioid agonist serial dilution was added in the presence of forskolin in duplicate to the designated wells. The final concentration of each dilution was at 3× of the final screening concentration. The assay plate was incubated for 30 min, at 37° C. under 5% CO2.
# Cellular cAMP concentrations were measured using the HitHunter cAMP Assay kit following the manufacturer's protocol. HitHunter cAMP assay is a gain-of-signal competitive immunoassay based on Enzyme Fragment Complementation (EFC) technology. The kit uses β-galactosidase (β-gal) enzyme split into Enzyme Donor (ED) and Enzyme Acceptor (EA). The cellular cAMP and ED-labelled cAMP compete for anti-cAMP antibody. […] When cellular cAMP level is high, it competes for the anti-cAMP antibody, thereby releasing ED-cAMP to complement with EA to produce a luminescent signal. The amount of signal is directly proportional to the amount of cAMP in cells and can be quantified using cAMP standards. The assay plates were read using a PerkinElmer Envision instrument to detect the chemiluminescence signal in each well (luminescence reader at 0.1 to 1 second/well). Data analysis was performed using Graphpad Prism 7.EC50 was calculated by nonlinear regression, using the four-parameter hill equation.
# T1 sequence (P41143 whole entry): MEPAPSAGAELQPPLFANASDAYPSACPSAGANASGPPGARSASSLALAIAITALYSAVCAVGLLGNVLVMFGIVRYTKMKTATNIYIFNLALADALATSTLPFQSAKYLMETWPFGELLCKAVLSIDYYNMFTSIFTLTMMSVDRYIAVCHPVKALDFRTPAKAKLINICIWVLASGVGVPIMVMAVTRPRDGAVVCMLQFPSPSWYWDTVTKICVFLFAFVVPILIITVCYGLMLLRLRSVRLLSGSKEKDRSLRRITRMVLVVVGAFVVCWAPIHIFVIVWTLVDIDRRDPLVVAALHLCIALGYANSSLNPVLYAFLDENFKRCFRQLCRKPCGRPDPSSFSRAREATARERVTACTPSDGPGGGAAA
# T2 sequence (P35372 whole entry): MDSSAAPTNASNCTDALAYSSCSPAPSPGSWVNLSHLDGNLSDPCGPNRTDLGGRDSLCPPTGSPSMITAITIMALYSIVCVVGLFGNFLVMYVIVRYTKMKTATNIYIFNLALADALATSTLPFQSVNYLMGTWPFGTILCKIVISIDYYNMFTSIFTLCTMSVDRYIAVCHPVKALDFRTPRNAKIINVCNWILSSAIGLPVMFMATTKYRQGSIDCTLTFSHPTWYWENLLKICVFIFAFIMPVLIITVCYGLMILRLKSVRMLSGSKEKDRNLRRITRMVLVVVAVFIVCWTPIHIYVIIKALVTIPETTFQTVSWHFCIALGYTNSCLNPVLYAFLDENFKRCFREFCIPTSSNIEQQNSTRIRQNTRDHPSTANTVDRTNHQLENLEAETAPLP
SMILES,"SIF (min) ([1]; Table 4, SIF half-life)",pEC50 (δ-opioid receptor (DOR)),half-life at 20 μM [1],half-life at 20 μM [2],pEC50 (μ-opioid receptor (MOR))
"Cc1cc(C(N)=O)cc(C)c1C[C@H](N)C(=O)N[C@H](C)C(=O)NCC(=O)N[C@H](CC(=O)N(C)CC(N)=O)Cc1ccccc1 [Seq. ID 70, H-Phe(2,6-dimethyl-4-CONH2)-a-G-bhF-Sar-NH2]","**** (for SIF half-life values, **** indicates >1290)",,,,
C[C@@H](NC(=O)C[C@@H](N)Cc1ccc(O)cc1)C(=O)NCC(=O)N[C@H](CC(=O)N(C)CC(N)=O)Cc1ccccc1 [compound 50],,< 6.70,6 to 24 h,,
CN[C@@H](Cc1ccc(O)cc1)C(=O)N[C@H](C)C(=O)NCC(=O)N[C@H](CC(=O)N(C)CC(N)=O)Cc1ccccc1 [compound 51],,< 6.70,6 to 24 h,,
C[C@@H](NC(=O)[C@@H](N)Cc1ccc(O)c(C(C)(C)C)c1)C(=O)NCC(=O)N[C@H](CC(=O)N(C)CC(N)=O)Cc1ccccc1 [compound 52],,< 6.70,6 to 24 h,,
C[C@@H](NC(=O)[C@H](N)Cc1ccc(O)cc1)C(=O)NCC(=O)N[C@H](CC(=O)N(C)CC(N)=O)Cc1ccccc1 [compound 53],,< 6.70,6 to 24 h,,
C[C@@H](NC(=O)[C@@H](N)CCc1ccc(O)cc1)C(=O)NCC(=O)N[C@H](CC(=O)N(C)CC(N)=O)Cc1ccccc1 [compound 54],,< 6.70,6 to 24 h,,
C[C@@H](NC(=O)[C@@H](N)Cc1ccc(O)c(Cl)c1)C(=O)NCC(=O)N[C@H](CC(=O)N(C)CC(N)=O)Cc1ccccc1 [compound 55],,7.30 to 8.00,6 to 24 h,,
C[C@@H](NC(=O)[C@@H](N)Cc1cccc(O)c1)C(=O)NCC(=O)N[C@H](CC(=O)N(C)CC(N)=O)Cc1ccccc1 [compound 56],,< 6.70,6 to 24 h,,
C[C@@H](NC(=O)[C@@H](N)Cc1ccc(O)c(F)c1)C(=O)NCC(=O)N[C@H](CC(=O)N(C)CC(N)=O)Cc1ccccc1 [compound 57],,8.00 to 9.00,6 to 24 h,> 24 h,
C[C@@H](NC(=O)[C@@H](N)Cc1ccc(O)c(O)c1)C(=O)NCC(=O)N[C@H](CC(=O)N(C)CC(N)=O)Cc1ccccc1 [compound 58],,,6 to 24 h,,
Cc1cc(O)cc(C)c1C[C@H](N)C(=O)N[C@H](C)C(=O)N[C@@H](C)C(=O)N[C@H](CC(=O)N(C)CC(N)=O)Cc1ccccc1 [compound 66] (H-[Dmt][dA]A[β3hF][Sar]-NH2),,,> 24 h,0.167 to 6 h,
Cc1cc(O)cc(C)c1C[C@H](N)C(=O)N[C@H](C)C(=O)NCCC(=O)N[C@H](CC(=O)N(C)CC(N)=O)Cc1ccccc1 [compound 73],,6.70 to 7.30,> 24 h,0.167 to 6 h,
Cc1cc(O)cc(C)c1C[C@H](N)C(=O)N[C@H](C)C(=O)NCC(=O)N[C@H](CC(=O)N(C)CC(=O)O)Cc1ccccc1 [compound 87],,> 9.00,> 24 h,6 to 24 h,
Cc1cc(O)cc(C)c1C[C@H](N)C(=O)N[C@H](C)C(=O)NCC(=O)N[C@H](CC(=O)NCC(N)=O)Cc1ccccc1 [compound 112],,> 9.00,> 24 h,> 24 h,
Cc1cc(O)cc(C)c1C[C@H](N)C(=O)N[C@H](C)C(=O)NCC(=O)N[C@H](CC(=O)N(CCC(C)C)CC(N)=O)Cc1ccccc1 [compound 116],,> 9.00,> 24 h,> 24 h,
Cc1cc(O)cc(C)c1C[C@H](N)C(=O)N[C@H](C)C(=O)NCC(=O)N[C@H](CC(=O)N(CCCOC(C)C)CC(N)=O)Cc1ccccc1 [compound 117],,> 9.00,> 24 h,> 24 h,
Cc1cc(O)cc(C)c1C[C@H](N)C(=O)N[C@H](C)C(=O)NCC(=O)N[C@H](CC(=O)N(C)[C@@H](CC(C)C)C(=O)O)Cc1ccccc1 [compound 155],,,> 24 h,> 24 h,> 9.00
Cc1cc(O)cc(C)c1C[C@H](N)C(=O)N[C@H](C)C(=O)NCC(=O)N[C@H](CC(=O)N(C)[C@H](C(=O)O)c1ccccc1)Cc1ccccc1 [compound 157],,> 9.00,> 24 h,,> 9.00
CCCC[C@@H](C(=O)O)N(C)C(=O)C[C@H](Cc1ccccc1)NC(=O)CNC(=O)[C@@H](C)NC(=O)[C@@H](N)Cc1c(C)cc(O)cc1C [compound 159],,,> 24 h,> 24 h,> 9.00
Cc1cc(O)cc(C)c1C[C@H](N)C(=O)N[C@@H](C(=O)NCC(=O)N[C@H](CC(=O)N(C)[C@@H](C)C(=O)O)Cc1ccccc1)[C@H](C)O [compound 183],,> 9.00,,,> 9.00
CCC[C@@H](C(N)=O)N(C)C(=O)C[C@H](Cc1ccccc1)NC(=O)CNC(=O)[C@@H](C)NC(=O)[C@@H](N)Cc1c(C)cc(O)cc1C [compound 184],,> 9.00,,,> 9.00
Cc1cc(O)cc(C)c1C[C@H](N)C(=O)N[C@H](CCC(=O)O)C(=O)NCC(=O)N[C@H](CC(=O)N(C)[C@@H](C)C(=O)O)Cc1ccccc1 [compound 185],,> 9.00,,,8.00 to 9.00
CC[C@H](C)[C@@H](C(=O)O)N(C)C(=O)C[C@H](Cc1ccccc1)NC(=O)CNC(=O)[C@@H](CCC(=O)O)NC(=O)[C@@H](N)Cc1c(C)cc(O)cc1C [compound 186],,> 9.00,,,8.00 to 9.00
Cc1cc(O)cc(C)c1C[C@H](N)C(=O)N[C@H](CCC(=O)O)C(=O)NCC(=O)N[C@H](CC(=O)N(C)CC(N)=O)Cc1ccccc1 [compound 187],,8.00 to 9.00,,,> 9.00
Cc1cc(O)cc(C)c1C[C@H](N)C(=O)N[C@H](C)C(=O)NCC(=O)N[C@H](CC(=O)N(C)CC(=O)N[C@H](CCCCNC(=O)COCC(=O)NCCCC[C@@H](NC(=O)CN(C)C(=O)C[C@H](Cc1ccccc1)NC(=O)CNC(=O)[C@@H](C)NC(=O)[C@@H](N)Cc1c(C)cc(O)cc1C)C(N)=O)C(N)=O)Cc1ccccc1 [compound 271] (I: H-[Dmt][dA]G[β3hF][Sar][dK]-NH2 / II: H-[Dmt][dA]G[β3hF][Sar][dK]-NH2; linker I:6-II:6 via Diglycolyl),,8.00 to 9.00,,,8.00 to 9.00
